For six compounds, IC50 results are on record in patent US12606572B2, “Substituted heterocycles and uses thereof” (Kumquat Biosciences Inc., priority 2023, dated 2026).

The term IC50 denotes the concentration at which inhibition is half-maximal.

This experiment deals with T1, KRAS WT (Homo sapiens, UniProt P01116).
T1 construct: made in house; host or cells: E. coli BL21 (DE3)
The experiment in a line: HTRF assay, interaction of GST-tagged K-Ras with His-tagged hSOS1 (KRAS wildtype). Type of experiment: biochemical. The conditions noted are these: <500 nM, read-out: Inhibition of KRAS WT (IC50). From the text: This assay can be also used to assess a selective inhibition or reduction of signaling output of a mutant Ras protein relative to a wildtype, or relative to a different mutant Ras protein. For example, the equilibrium interaction of wildtype KRAS or K-Ras mutant (e.g., wildtype or a mutant thereof) with SOS1 (e.g., hSOS1) can be assessed as a proxy or an indication for the ability of a subject compound to bind and inhibit Ras protein. The HTRF assay detects from (i) a fluorescence resonance energy transfer (FRET) donor (e.g., antiGST-Europium) that is bound to GST-tagged K-Ras mutant to (ii) a FRET acceptor (e.g., anti-6His-XL665) bound to a His-tagged hSOS1.
The assay buffer can contain ˜5 mM HEPES pH 7.4, ˜150 mM NaCl, ˜1 mM DTT, 0.05% BSA and 0.0025% (v/v) Igepal. A Ras working solution is prepared in an assay buffer containing typically a suitable amount of the protein construct (e.g., GST-tagged K-Ras mutant) and the FRET donor (e.g., antiGST-Eu(K) from Cisbio, France). A SOS1 working solution is prepared in an assay buffer containing suitable amount of the protein construct (e.g., His-hSOS1) and the FRET acceptor (e.g., anti-6His-XL665 from Cisbio, France). A suitable amount of the protein construct will depend on the range of activity or range of IC50 values being detected or under investigation. For detecting an IC50 within a range of 500 nM, the protein constructs of the same range of molarity can be utilized.
A fixed volume of DMSO with or without test compound is transferred into a 384-well plate. Ras working solution is added to all wells of the test plate. SOS1 working solution is added to all wells except for those that are subsequently filled with inhibitor control solution. Upon incubation for about 10 minutes or longer, the fluorescence is measured with a M1000Pro plate reader (Tecan) using HTRF detection (excitation 337 nm, emission 1: 620 nm, emission 2: 665 nm). Compounds are tested in duplicate at different concentrations (for example, 10 μM, 2.5 μM, 0.63 μM, 0.16 μM, 0.04 μM, 0.01 μM test compound). The ratiometric data (i.e., emission 2 divided by emission 1) is used to calculate IC50 values against Ras using GraphPad Prism (GraphPad software). Signaling output measured in terms of IC50 values can be obtained and a ratio of IC50 against one mutant relative to another mutant can be calculated. For instance, a selective reduction of K-Ras G12S signaling output can be evidenced by a ratio greater than one. In particular, a selective reduction of K-Ras G12S signaling relative to K-Ras WT signaling is evidenced if the ratio of IC50 (against K-Ras WT) to IC50 (against K-Ras G12S) is greater than 1.
Background: In TR-FRET formats the signal depends on donor and acceptor labels being close together.

Bounds are passed on as bounds.

T1 sequence (P01116 1-188 isoform P01116-2): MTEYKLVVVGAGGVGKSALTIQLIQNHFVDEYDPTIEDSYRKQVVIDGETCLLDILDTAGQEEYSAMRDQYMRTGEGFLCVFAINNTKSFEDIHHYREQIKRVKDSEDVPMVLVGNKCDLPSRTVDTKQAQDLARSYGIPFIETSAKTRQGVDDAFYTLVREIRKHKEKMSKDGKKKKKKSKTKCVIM

Turning to `C[C@H]1COc2c(Cl)c(-c3ccc(F)c4sc(N)c(C#N)c34)c(F)c3nc(OC[C@@]45CCCN4C[C@H](F)C5)nc(c23)N1C[C@@H]1CN(C(=O)n2ccnc2)[C@@H]1C1(C)CC1` (single isomer, unassigned) [Compound 473], the half-inhibitory concentration (IC50) is less than 500 nM.
For the compound `Cc1cn(C(=O)N2CC[C@@H](N3C[C@H](C)Oc4cc(-c5cc(N)c(F)c(C)c5C(F)(F)F)c(F)c5nc(OC[C@@]67CCCN6C[C@H](F)C7)nc3c45)[C@H]2C)c(C)n1` [Compound 415, ((2R,3R)-3-((S)-9-(5-amino-4-fluoro-3-methyl-2-(trifluoromethyl)phenyl)-10-fluoro-2-(((2R,7aS)-2-fluorotetrahydro-1H-pyrrolizin-7a(5H)-yl)methoxy)-6-methyl-5,6-dihydro-4H-[1,4]oxazepino [5,6,7-de]quinazolin-4-yl)-2-methylpyrrolidin-1-yl)(2,4-dimethyl-1H-imidazol-1-yl)methanone], the IC50 was less than 500 nM.
With `CN1[C@H](C2CC2)[C@@H]1C(=O)N1CC(CN2CCOc3c(Cl)c(-c4ccc(F)c5sc(N)c(C#N)c45)c(F)c4nc(OC[C@@]56CCCN5C[C@H](F)C6)nc2c34)C1` (stereo partly drawn) [Compound 460, 2-amino-4-(8-chloro-4-((1-((2R,3R)-3-cyclopropyl-1-methylaziridine-2-carbonyl)azetidin-3-yl)methyl)-10-fluoro-2-(((2R,7aS)-2-fluorotetrahydro-1H-pyrrolizin-7a(5H)-yl)methoxy)-5,6-dihydro-4H-[1,4]oxazepino [5,6,7-de]quinazolin-9-yl)-7-fluorobenzo[b]thiophene-3-carbonitrile] the figure was less than 500 nM.
For `CC(CN(C)C(=O)n1ccnc1)N1c2nc(OC[C@@]34CCCN3C[C@H](F)C4)nc3c(F)c(-c4ccc(F)c5sc(N)c(C#N)c45)c(Cl)c(c23)OC[C@@H]1[C@H](C)O` (stereo partly drawn) [Compound 467, N-(2-((5R)-9-(2-amino-3-cyano-7-fluorobenzo[b]thiophen-4-yl)-8-chloro-10-fluoro-2-(((2R,7aS)-2-fluorotetrahydro-1H-pyrrolizin-7a(5H)-yl)methoxy)-5-((S)-1-hydroxyethyl)-5,6-dihydro-4H-[1,4]oxazepino[5,6,7-de]quinazolin-4-yl)propyl)-N-methyl-1H-imidazole-1-carboxamide], the 50% inhibitory concentration (IC50) is less than 500 nM.
With `N#Cc1cn(C(=O)N2CC(CN3CCOc4c(Cl)c(-c5ccc(F)c6sc(N)c(C#N)c56)c(F)c5nc(OC[C@@]67CCCN6C[C@H](F)C7)nc3c45)C2)cn1` [Compound 478, 1-(3-((9-(2-amino-3-cyano-7-fluorobenzo[b]thiophen-4-yl)-8-chloro-10-fluoro-2-(((2R,7aS)-2-fluorotetrahydro-1H-pyrrolizin-7a(5H)-yl)methoxy)-5,6-dihydro-4H-[1,4]oxazepino[5,6,7-de]quinazolin-4-yl)methyl)azetidine-1-carbonyl)-1H-imidazole-4-carbonitrile], the IC50 is less than 500 nM.
With `C[C@H](O)[C@H]1COc2c(Cl)c(-c3ccc(F)c4sc(N)c(C#N)c34)c(F)c3nc(OC[C@@]45CCCN4C[C@H](F)C5)nc(c23)N1C1CC(CN(C)C(=O)n2ccnc2)C1` (stereo partly drawn) [Compound 482, N-((3-((5R)-9-(2-amino-3-cyano-7-fluorobenzo[b]thiophen-4-yl)-8-chloro-10-fluoro-2-(((2R,7aS)-2-fluorotetrahydro-1H-pyrrolizin-7a(5H)-yl)methoxy)-5-((S)-1-hydroxyethyl)-5,6-dihydro-4H-[1,4]oxazepino [5,6,7-de]quinazolin-4-yl)cyclobutyl)methyl)-N-methyl-1H-imidazole-1-carboxamide] the figure was less than 500 nM.
